Target: T1, DPP-IV (dipeptidyl peptidase-IV) (Homo sapiens, UniProt P27487)
T1 construct: gene DPP4; commercial recombinant human DPP-IV
Assay: fluorimetric DPP-IV inhibition assay (H-Gly-Pro-AMC), dose-response
Format: biochemical

T1 sequence (P27487 39-766): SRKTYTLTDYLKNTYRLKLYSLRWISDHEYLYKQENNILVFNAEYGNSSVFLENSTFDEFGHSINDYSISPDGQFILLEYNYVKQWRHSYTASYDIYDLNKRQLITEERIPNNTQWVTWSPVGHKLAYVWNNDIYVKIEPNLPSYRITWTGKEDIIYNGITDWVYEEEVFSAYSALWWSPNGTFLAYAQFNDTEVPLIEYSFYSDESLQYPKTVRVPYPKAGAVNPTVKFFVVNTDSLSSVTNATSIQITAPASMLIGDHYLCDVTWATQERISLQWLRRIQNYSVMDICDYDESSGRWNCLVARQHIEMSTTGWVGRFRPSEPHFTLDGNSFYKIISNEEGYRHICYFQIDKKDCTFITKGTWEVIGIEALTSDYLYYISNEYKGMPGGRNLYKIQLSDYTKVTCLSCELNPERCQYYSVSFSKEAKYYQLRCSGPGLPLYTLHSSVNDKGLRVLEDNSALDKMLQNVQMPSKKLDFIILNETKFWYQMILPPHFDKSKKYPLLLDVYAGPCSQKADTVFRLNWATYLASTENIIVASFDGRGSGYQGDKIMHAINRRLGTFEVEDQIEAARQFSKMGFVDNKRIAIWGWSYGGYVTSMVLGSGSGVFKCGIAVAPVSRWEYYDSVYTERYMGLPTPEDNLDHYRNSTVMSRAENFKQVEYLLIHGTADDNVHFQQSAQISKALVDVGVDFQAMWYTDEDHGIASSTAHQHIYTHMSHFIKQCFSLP

**Q.** With `CCCCN(C)Cc1c(O)ccc2c(-c3cc4ccccc4oc3=O)cc(=O)oc12` [C5, ZINC02132035] as the compound, how does the IC50 read?
**A.** The IC50 was 61.6 µM.

— paper PMC3440348, “Identification of Novel Human Dipeptidyl Peptidase-IV Inhibitors of Natural Origin (Part I): Virtual Screening and Activity Assays” (PLoS ONE, 2012)
